According to patent publication US20250115571A1, “OXOPIPERAZINE DERIVATIVES” (Inthera Bioscience AG, priority 2017, published 2025):

How the values were obtained:
CaSki cells = experiment: Colony Formation Assay (CFA), 14 days; format: cell-based; settings: Homo sapiens, Ca-Ski, 336 h; for inhibition at 0.7 µM: colony formation assay, class by % inhibition at 0.7, 6 or 50 μM
Text: Cell culture: CaSki cells were obtained from CLS GmbH, Eppelheim, Germany (cat. 300145) and subcultured in ready-to-use RPMI1640 Media (CLS GmbH cat. 820700) after addition of “Antibiotic Antimycotic Solution” (Sigma-Aldrich, St Louis, USA, cat. A5955) at 1:100 dilution. CaSki cells were expanded and aliquots kept frozen in liquid nitrogen according to manufacturer's instructions. Once thawed, aliquots were passaged every second or third day at a seed density of 20′000 cells/cm^2; and used for a maximum of twenty passages.
Preparation of the cells for CFA: Cell culture flasks were rinsed twice with Ca++/Mg++-free Phosphate-Buffered Saline (DPBS, CLS GmbH cat. 860015) and incubated with Accutase (CLS GmbH cat. 830100) for 15 min at 37° C. Cells were resuspended in a four-fold volume of ready-to use RPMI, centrifuged at 300 g for 10 minutes, the supernatant discarded and the cells resuspended in ready-to-use RPMI1640 by pipetting up and down ten times with a serological pipette. Cell density was determined with a Via-1 Cassette (Chemometec, Allerod, Denmark) on a Nucleocounter NC 3000 (Chemometec). The required amount of cells was first diluted 1:10 in ready-to-use RPMI; cells pipetted five times up-down with a serological pipette; and the 1:10 solution added to the final volume needed for the whole assay setup. Cells were mixed again by pipetting up and down twenty times with a serological pipette. The final cell density was 70 cells/ml.
Seeding: Cells were seeded column-wise in 6-well plates, while triplicates were treated row-wise. Three ml cell suspension solution (210 cells) were added per well.
Treatment: Compound stock solutions were prepared at a concentration of 30 mM in 50% DMSO/50% water; and diluted in the same solution so that the volume added to the wells was of 5 μl and the final DMSO well concentration 0.08%. Untreated cells (negative controls) were incubated in a) medium only; and b) 0.08% DMSO. […] Tests showing less than 75% or more than 95% inhibition were repeated. The plates were swirled gently after addition of the compounds and the cells incubated for 14 days at 37° C. Culture incubation solutions were replaced after one week.
Staining: Colonies were washed twice with ice-cold DPBS and fixed on ice with 1 ml ice-cold 10% methanol solution for 30 min. The methanol solution was removed and colonies incubated with 0.1% Crystal Violet/DBPS for 20 min at room temperature. The wells were rinsed with water at room temperature, let dry and colonies were counted. Compounds e.g., compounds of Table 2 and 3 were classified as follows: […]

[1] = tested on: HPV-positive head-and-neck squamous cell carcinoma model #HN11303; experiment: Patient-derived xenograft mouse model for head-and-neck squamous cell carcinoma (HN11303); format: in vivo; settings: for mean TV: subcutaneous HPV-positive HNSCC model, female NMRI nu/nu mice
Description: Female NMRI nu/nu mice were injected with cells derived from a human head-and-neck cancer (model #HN11303, an HPV-positive head-and-neck squamous cell carcinoma, EPO-GmbH, Berlin, Germany). The cells were inoculated subcutaneously into the left flank of 40 mice. Thirteen days later tumors reached a mean volume of approximately 107 mm^3, and mice were randomly assigned to five treatment groups of each eight mice (TABLE 23). Body weights were measured twice weekly. Tumor burden was assessed by caliper measurement twice weekly. Dosing breaks were applied when tolerability issues arose (body weight loss>10). The study was terminated five weeks post first dosing. The experiment was performed in the EPO animal testing facility (Experimental Pharmacology and Oncology GmbH, 13125 Berlin-Buch, Germany).

[2] = tested on: HPV-positive head-and-neck squamous cell carcinoma model #HN10309; experiment: Patient-derived xenograft mouse model for head-and-neck squamous cell carcinoma (HN10309); format: in vivo; settings: p.o. BID, 30 mg/kg, female NMRI nu/nu mice
Description: Female NMRI nu/nu mice were injected with cells derived from a human head-and-neck cancer (model #HN10309, an HPV-positive head-and-neck squamous cell carcinoma, EPO-GmbH, Berlin, Germany). The cells were inoculated subcutaneously into the left flank of 24 mice. Thirty-three days later tumors reached a mean volume of approximately 116 mm^3, and mice were randomly assigned to three treatment groups of each eight mice (TABLE 21). Body weights were measured twice weekly. Tumor burden was assessed by caliper measurement twice weekly. Dosing breaks were applied when tolerability issues arose (body weight loss>[…]). The study was terminated four weeks post first dosing. The experiment was performed in the EPO animal testing facility (Experimental Pharmacology and Oncology GmbH, 13125 Berlin-Buch, Germany).

[3] = tested on: SiHa human HPV16-positive cervical cancer cells; experiment: Cell-derived xenograft mouse model for cervical cancer (SiHa CDX); format: in vivo; settings: p.o.; for Tumor Size day 37: SiHa CDX, female BALB/c nude mice, Mean ± SEM; for T/C: day 37, tumor-to-control ratio (volume/volume)
Description: Female BALB/c nude mice (7-9 weeks of age) were injected with SiHa human HPV16-positive (Human Papillomavirus type 16) cervical cancer cells. The cells were inoculated subcutaneously into the left flank of 48 mice. When tumors reached a mean volume of approximately 111 mm^3, mice were randomly assigned to eight treatment groups of each six mice (TABLE 18). Body weights were measured three times weekly prior to the initiation of dosing and daily thereafter. Tumor burden was assessed by caliper measurement twice weekly. Dosing breaks were applied when tolerability issues arose (body weight loss>10%). The study was terminated four weeks post first dosing. The experiment was performed in the Crown Bioscience Ltd. (Beijing) testing facility (Ground Floor, Light Muller Building, Changping Sector of Zhongguancun Scientific Park, No. 21 Huoju Road, Changping District, Beijing, CHIN).

[4] = 1 mg/kg, BID, listed as Compound 248

SMILES: CC(C)C[C@@H]1NCCN([C@@H](CC(C)C)C(=O)N2CCC(Cc3ncc[nH]3)CC2)C1=O [Compound 57, (S)-1-[(S)-1-({4-[(1H-Imidazol-2-yl)methyl]-1-piperidyl}carbonyl)-3-methylbutyl]-3-isobutyl-2-piperazinone]
- inhibition at 10 µM (CaSki cells; 10 μM, reference compound standard treatment, 14 days): 80 to 90%
- mean TV ([1]; day 13): 0.1073 cm^3
- mean TV ([1]; day 15): 0.1106 cm^3
- mean TV ([1]; day 18): 0.1166 cm^3
- mean TV ([1]; day 21): 0.1081 cm^3
- mean TV ([1]; day 25): 0.1233 cm^3
- mean TV ([1]; day 29): 0.1421 cm^3
- mean TV ([1]; day 33): 0.2009 cm^3
- mean TV ([1]; day 36): 0.1776 cm^3

SMILES: CC(C)C[C@@H]1NCCN([C@H](C(=O)N2CCC(CC(N)=O)CC2)C(C)C)C1=O [Compound 90, (1-{(S)-2-[(S)-3-Isobutyl-2-oxo-1-piperazinyl]-3-methylbutyryl}-4-piperidyl)acetamide]
- inhibition at 0.7 µM (CaSki cells): < 0%

SMILES: CC(C)(C)C[C@@H](C(=O)N1CCC(CC(N)=O)CC1)N1CCN[C@@H](CC2CC2)C1=O [Compound 94, (1-{(S)-2-[(S)-3-(Cyclopropylmethyl)-2-oxo-1-piperazinyl]-4,4-dimethylvaleryl}-4-piperidyl)acetamide]
- inhibition at 0.7 µM (CaSki cells): < 0%

SMILES: CCCC[C@@H]1NCCN([C@@H](CC2CC2)C(=O)N2CCC(CC(N)=O)CC2)C1=O [Compound 106, (1-{(S)-2-[(S)-3-Butyl-2-oxo-1-piperazinyl]-3-cyclopropylpro-pionyl}-4-piperidyl)acetamide]
- inhibition at 0.7 µM (CaSki cells): < 0%

SMILES: CC(C)C[C@@H](C(=O)N1CCC(CC(N)=O)CC1)N1CCN[C@@H](CC(C)(C)C)C1=O [Compound 114, (1-{(S)-2-[(S)-3-Neopentyl-2-oxo-1-piperazinyl]-4-methylvaleryl}-4-piperidyl)acetamide]
- inhibition at 0.7 µM (CaSki cells): < 0%

SMILES: CC(C)C[C@@H]1NCCN([C@@H](CC(C)C)C(=O)N2CCC3(C[C@@H]2C)OCC(CN2CCCC2)CO3)C1=O (stereo partly drawn) [Compound 248, (S)-1-[(S)-1-({(S)-8-Methyl-3-[(1-pyrrolidinyl)methyl]-1,5-dioxa-9-aza-9-spiro[5.5]un-decyl}carbonyl)-3-methylbutyl]-3-isobutyl-2-piperazinone]
- mice tumor-free at the end of the observation period ([1]; HN11303 PDX, variable dosages (TABLE 23), all sixteen mice of the two groups): tumor-free
- mean TV ([1]; day 13): 0.1064 cm^3
- mean TV ([1]; day 15): 0.0958 cm^3
- mean TV ([1]; day 18): 0.0916 cm^3
- mean TV ([1]; day 21): 0.0511 cm^3
- mean TV ([1]; day 25): 0.0499 cm^3
- mean TV ([1]; day 29): 0.0288 cm^3
- mean TV ([1]; day 33): 0.0068 cm^3
- mean TV ([1]; day 36): 0.0041 cm^3
- mean TV ([2]; Day 33): 0.1159 cm^3
- mean TV ([2]; Day 35): 0.1248 cm^3
- mean TV ([2]; Day 38): 0.1389 cm^3
- mean TV ([2]; Day 41): 0.1093 cm^3
- mean TV ([2]; Day 45): 0.1794 cm^3
- mean TV ([2]; Day 49): 0.2398 cm^3
- mean TV ([2]; Day 53): 0.2964 cm^3
- mean TV ([2]; Day 56): 0.2569 cm^3
- Tumor Size day 37 [3, 4]: 586 ± 82 mm^3
- T/C [3, 4]: 62.6%
- Tumor Size day 37 ([3]; 3 mg/kg, BID): 178 ± 27 mm^3
- T/C ([3]; 3 mg/kg, BID): 19%
- Tumor Size day 37 ([3]; 6 mg/kg, QD): 238 ± 37 mm^3
- T/C ([3]; 6 mg/kg, QD): 25.4%

SMILES: CC(C)C[C@@H]1NCCN([C@@H](CC(C)C)C(=O)N2CCC3(C[C@@H]2C)OCC(c2nccn2C)CO3)C1=O (stereo partly drawn) [Compound 260, (S)-1-[(S)-1-({(S)-8-Methyl-3-(1-methyl-1H-imidazol-2-yl)-1,5-dioxa-9-aza-9-spiro[5.5]un-decyl}carbonyl)-3-methylbutyl]-3-isobutyl-2-piperazinone]
- inhibition at 0.7 µM (CaSki cells): < 0%

SMILES: CC(C)C[C@@H]1NCCN([C@@H](CC(C)C)C(=O)N2CCC3(C[C@@H]2C)OCC(c2ccccn2)CO3)C1=O (stereo partly drawn) [Compound 285, (S)-1-[(S)-1-({(S)-8-Methyl-3-(2-pyridyl)-1,5-dioxa-9-aza-9-spiro[5.5]un-decyl}carbonyl)-3-methylbutyl]-3-isobutyl-2-piperazinone]
- inhibition at 0.7 µM (CaSki cells): < 0%

SMILES: CC(C)C[C@@H]1NCCN([C@@H](CC(C)C)C(=O)N2CCC3(C[C@@H]2C)O[C@H]2C[C@@H](N(C)C)C[C@H]2O3)C1=O (stereo partly drawn) [Compound 292, (S)-1-[(S)-1-({(1R,5S,2′S)-7-(Dimethylamino)-2′-methylspiro[2.4-di-oxabicyclo[3.3.0]oc-tane-3,4′-piperidin]-1′-yl}carbonyl)-3-methylbutyl]-3-isobutyl-2-piperazinone]
- inhibition at 0.7 µM (CaSki cells): < 0%

SMILES: CC(C)C[C@@H]1NCCN([C@@H](CC(C)C)C(=O)N2CCC3(C[C@@H]2C)O[C@H]2CN(C)CC[C@H]2O3)C1=O (some centres unmarked) [Compound 296]
- inhibition at 0.7 µM (CaSki cells): < 0%

SMILES: CC(C)C[C@@H]1NCCN([C@@H](CC(C)C)C(=O)N2CCC3(C[C@@H]2C)OC2CN(C)C[C@@H]2O3)C1=O (stereo partly drawn) [Compound 300, (S)-1-[(S)-1-({(2′S)-7-Methyl-2′-methylspiro[2.4-dioxa-7-azabicyclo[3.3.0]oc-tane-3,4′-piperidin]-1′-yl}carbonyl)-3-methylbutyl]-3-isobutyl-2-piperazinone]
- inhibition at 0.7 µM (CaSki cells): < 0%
